# Reference: PubChem BioAssay AID2060600 (Molecular Pharmacology Branch, DTP, NCI, 2025)
# “And” between values parts separate entries of the source, which are not always exact repeats. Identical values can stand only once.
# Tested on: 996289-038-R-J1-PDC complex spheroid viability
# Assay: Anticancer human tumor 996289-038-R-J1-PDC patient-derived colon adenocarcinoma cell line growth inhibition [CLK]
# Settings: for viability, T/C: stronger effect = lower value
# Outline: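 Patient-derived tumor cells grown as complex spheroids with HUVEC endothelial cells and mesenchymal stem cells, treated with drug combinations. Concentrations descend in half-log steps from near clinical Cmax, or from 10 microM if Cmax unknown.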
# [1] = curve of first compound, second compound 0.0316 µM
# [2] = curve of first compound, second compound 0.1 µM
# [3] = curve of first compound, second compound 0.316 µM
# [4] = curve of first compound, second compound 1 µM
# [5] = curve of first compound, second compound 3.16 µM
# [6] = curve of first compound, second compound 10 µM
# 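Note: spheroids exposed to the agents for 7 days before readout.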
smiles,measurement,setting,value
CCCS(=O)(=O)Nc1ccc(F)c(C(=O)c2c[nH]c3ncc(-c4ccc(Cl)cc4)cc23)c1F + CN1CCN(c2cc(C(=O)Nc3cc4cc(-c5cnn(C)c5)ccc4cn3)ccn2)CC1,IC50,[1],> 10000 nM
same,IC50,[2],> 10000 nM
same,IC50,[3],6170 nM
same,IC50,[4],< 31.6 nM
same,IC50,[5],< 31.6 nM
same,IC50,[6],< 31.6 nM
same,"viability, T/C","second compound 0.0316 µM, first compound 0.0316 µM",92.3%
same,"viability, T/C","second compound 0.0316 µM, first compound 0.1 µM",87.7%
same,"viability, T/C","second compound 0.0316 µM, first compound 0.316 µM",95%
same,"viability, T/C","second compound 0.0316 µM, first compound 1 µM",98%
same,"viability, T/C","second compound 0.0316 µM, first compound 3.16 µM",98.6%
same,"viability, T/C","second compound 0.0316 µM, first compound 10 µM",68.1%
same,"viability, T/C","second compound 0.1 µM, first compound 0.0316 µM",94.2%
same,"viability, T/C","second compound 0.1 µM, first compound 0.1 µM",82%
same,"viability, T/C","second compound 0.1 µM, first compound 0.316 µM",90.1%
same,"viability, T/C","second compound 0.1 µM, first compound 1 µM",92%
same,"viability, T/C","second compound 0.1 µM, first compound 3.16 µM",81.3%
same,"viability, T/C","second compound 0.1 µM, first compound 10 µM",57.3%
same,"viability, T/C","second compound 0.316 µM, first compound 0.0316 µM",67.4%
same,"viability, T/C","second compound 0.316 µM, first compound 0.1 µM",70.3%
same,"viability, T/C","second compound 0.316 µM, first compound 0.316 µM",70.9%
same,"viability, T/C","second compound 0.316 µM, first compound 1 µM",76.6%
same,"viability, T/C","second compound 0.316 µM, first compound 3.16 µM",65.7%
same,"viability, T/C","second compound 0.316 µM, first compound 10 µM",37.9%
same,"viability, T/C","second compound 1 µM, first compound 0.0316 µM",5.57%
same,"viability, T/C","second compound 1 µM, first compound 0.1 µM",6.02%
same,"viability, T/C","second compound 1 µM, first compound 0.316 µM",6.22%
same,"viability, T/C","second compound 1 µM, first compound 1 µM",7.67%
same,"viability, T/C","second compound 1 µM, first compound 3.16 µM",5.81%
same,"viability, T/C","second compound 1 µM, first compound 10 µM",5.48%
same,"viability, T/C","second compound 3.16 µM, first compound 0.0316 µM",1.49%
same,"viability, T/C","second compound 3.16 µM, first compound 0.1 µM",1.01%
same,"viability, T/C","second compound 3.16 µM, first compound 0.316 µM",1.22%
same,"viability, T/C","second compound 3.16 µM, first compound 1 µM",1.3%
same,"viability, T/C","second compound 3.16 µM, first compound 3.16 µM",2.36%
same,"viability, T/C","second compound 3.16 µM, first compound 10 µM",1.6%
same,"viability, T/C","second compound 10 µM, first compound 0.0316 µM",1.91%
same,"viability, T/C","second compound 10 µM, first compound 0.1 µM",0.63%
same,"viability, T/C","second compound 10 µM, first compound 0.316 µM",1.71%
same,"viability, T/C","second compound 10 µM, first compound 1 µM",0.77%
same,"viability, T/C","second compound 10 µM, first compound 3.16 µM",1.81%
same,"viability, T/C","second compound 10 µM, first compound 10 µM",0.48%
CC1COCCN1c1cc(C2(S(C)(=N)=O)CC2)nc(-c2ccnc3[nH]ccc23)n1 (stereo unspecified),"viability, T/C",compound 0.0316 µM,103% and 102%
same,"viability, T/C",compound 0.1 µM,97.6% and 89.7%
same,"viability, T/C",compound 0.316 µM,96.9% and 106%
same,"viability, T/C",compound 1 µM,97.9% and 102%
same,"viability, T/C",compound 3.16 µM,97.8% and 101%
same,"viability, T/C",compound 10 µM,84.4% and 81.6%
same,IC50,curve of compound,> 10000 nM
CC(C)CC(NC(=O)C(Cc1ccccc1)NC(=O)c1cnccn1)B(O)O (stereo unspecified) + CNC(=O)c1ccc(Nc2nc(OC3CCCC3)c3c(-c4ccc5nc(C)oc5c4)c[nH]c3n2)c(OC)c1,IC50,[1],4.57 nM
same,IC50,[2],4.21 nM
same,IC50,[3],1.84 nM
same,IC50,[4],1.32 nM
same,IC50,[5],1.14 nM
same,IC50,[6],1.1 nM
same,"viability, T/C","second compound 0.0316 µM, first compound 0.000949 µM",121%
same,"viability, T/C","second compound 0.0316 µM, first compound 0.003 µM",76.2%
same,"viability, T/C","second compound 0.0316 µM, first compound 0.00949 µM",4.49%
same,"viability, T/C","second compound 0.0316 µM, first compound 0.03 µM",0.95%
same,"viability, T/C","second compound 0.0316 µM, first compound 0.0949 µM",3.14%
same,"viability, T/C","second compound 0.0316 µM, first compound 0.3 µM",0.51%
same,"viability, T/C","second compound 0.1 µM, first compound 0.000949 µM",139%
same,"viability, T/C","second compound 0.1 µM, first compound 0.003 µM",70%
same,"viability, T/C","second compound 0.1 µM, first compound 0.00949 µM",1.94%
same,"viability, T/C","second compound 0.1 µM, first compound 0.03 µM",0.61%
same,"viability, T/C","second compound 0.1 µM, first compound 0.0949 µM",0.54%
same,"viability, T/C","second compound 0.1 µM, first compound 0.3 µM",0.26%
same,"viability, T/C","second compound 0.316 µM, first compound 0.000949 µM",76.2%
same,"viability, T/C","second compound 0.316 µM, first compound 0.003 µM",30.4%
same,"viability, T/C","second compound 0.316 µM, first compound 0.00949 µM",0.98%
same,"viability, T/C","second compound 0.316 µM, first compound 0.03 µM",1.34%
same,"viability, T/C","second compound 0.316 µM, first compound 0.0949 µM",0.59%
same,"viability, T/C","second compound 0.316 µM, first compound 0.3 µM",1.22%
same,"viability, T/C","second compound 1 µM, first compound 0.000949 µM",66.4%
same,"viability, T/C","second compound 1 µM, first compound 0.003 µM",9.51%
same,"viability, T/C","second compound 1 µM, first compound 0.00949 µM",0.47%
same,"viability, T/C","second compound 1 µM, first compound 0.03 µM",0.42%
same,"viability, T/C","second compound 1 µM, first compound 0.0949 µM",3.6%
same,"viability, T/C","second compound 1 µM, first compound 0.3 µM",1.03%
same,"viability, T/C","second compound 3.16 µM, first compound 0.000949 µM",58.1%
same,"viability, T/C","second compound 3.16 µM, first compound 0.003 µM",6.51%
same,"viability, T/C","second compound 3.16 µM, first compound 0.00949 µM",1.11%
same,"viability, T/C","second compound 3.16 µM, first compound 0.03 µM",0.54%
same,"viability, T/C","second compound 3.16 µM, first compound 0.0949 µM",0.85%
same,"viability, T/C","second compound 3.16 µM, first compound 0.3 µM",1.44%
same,"viability, T/C","second compound 10 µM, first compound 0.000949 µM",56.3%
same,"viability, T/C","second compound 10 µM, first compound 0.003 µM",6.54%
same,"viability, T/C","second compound 10 µM, first compound 0.00949 µM",1.51%
same,"viability, T/C","second compound 10 µM, first compound 0.03 µM",0.65%
same,"viability, T/C","second compound 10 µM, first compound 0.0949 µM",0.7%
same,"viability, T/C","second compound 10 µM, first compound 0.3 µM",2.05%
